In ChEMBL document CHEMBL4340571, “Investigation of flexibility of neuraminidase 150-loop using tamiflu derivatives in influenza A viruses H1N1 and H5N1” (Bioorg Med Chem, 2019) one finds Ki and Ratio Ki data, which are given here for 23 compounds.

The nature of assay [1]: Inhibition of Influenza A virus (A/California/07/2009(H1N1)) Neuraminidase N1 at pH 7.4 by DIANA assay.
Assay [2] can be described thus: Selectivity index, ratio of Ki for inhibition of Influenza A virus (A/California/07/2009(H1N1)) Neuraminidase N1 by DIANA assay to Ki for inhibition of influenza A virus chicken/Nakorn- Patom/Thailand/CU-K2-2004 Neuraminidase N1 by DIANA assay.
A short description of assay [3]: Inhibition of Influenza A virus (A/California/07/2009(H1N1)) Neuraminidase N1 at pH 6.15 using 4-MUNANA substrate incubated for 20 mins by fluorometric assay.

The Ki is the dissociation constant of the complex between target and ligand, obtained from inhibition or displacement.

In turn, `CCC(CC)O[C@@H]1C=C(C(=O)O)C[C@H](NCc2cn(CC(=O)N(C)C)nn2)[C@H]1NC(C)=O` registered an inhibition constant (Ki) in assay [1] of 5.9 µM.
Consider `CCC(CC)O[C@@H]1C=C(C(=O)O)C[C@H](NCc2cn(CCN3CCS(=O)(=O)CC3)nn2)[C@H]1NC(C)=O`, for which the Ki in assay [1] amounted to 12 µM.
On to `CCC(CC)O[C@@H]1C=C(C(=O)O)C[C@H](n2cc(CNc3cc(F)ccc3OC)nn2)[C@H]1NC(C)=O`, for which the Ratio Ki in assay [2] is 2 to 4. Also, the affinity in assay [1], expressed as Ki, was 22 µM.
For the compound `CCC(CC)O[C@@H]1C=C(C(=O)O)C[C@H](n2cc(C[C@H](N)C(=O)O)nn2)[C@H]1NC(C)=O`, in assay [2], the Ratio Ki lay within 2 to 4. This compound gave a Ki in assay [1] of 64 µM.
With `CCC(CC)O[C@@H]1C=C(C(=O)O)C[C@H](n2cc(COCC(C)(CO)CO)nn2)[C@H]1NC(C)=O`, the Ratio Ki in assay [2] is 2 to 4. Also, in assay [1], the Ki stood at 180 µM.
Turning to `CCC(CC)O[C@@H]1C=C(C(=O)O)C[C@H](NCc2cn(CCO)nn2)[C@H]1NC(C)=O`, the inhibition constant Ki turned out to be 0.65 µM in assay [3] and 0.75 µM in assay [1].
Take `CCC(CC)O[C@@H]1C=C(C(=O)O)C[C@H](N)[C@H]1NC(C)=O` [OSELTAMIVIR CARBOXYLATE]: the results for the Ki in assay [3] and in assay [1] were 0.024 µM and 0.031 µM, respectively.
For `CCOC(=O)C1=C[C@@H](OC(CC)CC)[C@H](NC(C)=O)[C@@H](N)C1` [OSELTAMIVIR PHOSPHATE], the affinity in assay [1], expressed as Ki, was 2 µM. This lies in the single-digit micromolar range.
Compound `CCC(CC)O[C@@H]1C=C(C(=O)O)C[C@H](N=[N+]=[N-])[C@H]1NC(C)=O` returned a Ki in assay [3] of 0.91 µM.
Turning to `CCC(CC)O[C@@H]1C=C(C(=O)O)C[C@H](n2cc(CNc3ccccc3)nn2)[C@H]1NC(C)=O`, the Ratio Ki in assay [2] is 2 to 4. The Ki in assay [1] was found to be 19 µM.
In the same order, the values of `CCC(CC)O[C@@H]1C=C(C(=O)O)C[C@H](n2cc(-c3ccsc3)nn2)[C@H]1NC(C)=O` are 2 to 4 and 16 µM.
For `CCC(CC)O[C@H]1CC(C(=O)O)=C[C@@H](n2cc(CN3CCS(=O)(=O)CC3)nn2)[C@@H]1NC(C)=O`, the Ratio Ki in assay [2] lay within 2 to 4. The compound further displayed an inhibitory constant (Ki) in assay [1] of 340 µM.
In the case of `CCC(CC)O[C@@H]1C=C(C(=O)O)C[C@H](n2cc(C[C@@]3(C(=O)O)CCCN3)nn2)[C@H]1NC(C)=O`, in assay [2], the Ratio Ki was in the range of 2 to 4. For the same compound, in assay [1], affinity was put at a Ki of 98 µM.
Turning to `CCC(CC)O[C@@H]1C=C(C(=O)O)C[C@H](NCc2cn(CC(=O)O)nn2)[C@H]1NC(C)=O`, in assay [1], the Ki stood at 2.8 µM.
For the compound `CCC(CC)O[C@@H]1C=C(C(=O)O)C[C@H](n2cc(CNc3ccc(NC(C)=O)cc3)nn2)[C@H]1NC(C)=O`, the Ratio Ki in assay [2] is 2 to 4. In assay [1], this compound returned a Ki of 9.1 µM.
Regarding `CCC(CC)O[C@@H]1C=C(C(=O)O)C[C@H](n2cc(CNc3cccc(C(F)(F)F)c3)nn2)[C@H]1NC(C)=O`, the figures for the Ki in assay [3] and in assay [1] were 0.47 µM and 4.2 µM, respectively. Further, the Ratio Ki in assay [2] was in the range of 2 to 4.
Consider `CCC(CC)O[C@@H]1C=C(C(=O)O)C[C@H](n2cc(CO)nn2)[C@H]1NC(C)=O`, for which the figures for the Ki in assay [3] and in assay [1] were 0.47 µM and 12 µM, respectively. Also, in assay [2], the Ratio Ki lay in the range of 2 to 4.
As for `CCC(CC)O[C@@H]1C=C(C(=O)O)C[C@H](n2cc(CNc3ccccc3C(N)=O)nn2)[C@H]1NC(C)=O`, in assay [2], the Ratio Ki is 2 to 4. This compound also registered a Ki in assay [1] of 13 µM.
In the case of `CCC(CC)O[C@@H]1C=C(C(=O)O)C[C@H](n2cc(CNc3ccc(C(N)=O)c(C(F)(F)F)c3)nn2)[C@H]1NC(C)=O`, the Ratio Ki in assay [2] lay within 2 to 4. The compound further returned a Ki in assay [1] of 14 µM.
In the same order, the values of `CCC(CC)O[C@@H]1C=C(C(=O)O)C[C@H](n2cc(-c3cccs3)nn2)[C@H]1NC(C)=O` are 2 to 4 and 20 µM.
With `CCC(CC)O[C@@H]1C=C(C(=O)O)C[C@H](NCc2cn(CC(=O)NC)nn2)[C@H]1NC(C)=O`, the Ki in assay [3] amounted to 0.87 µM; in assay [1], 1.2 µM.
`CCC(CC)O[C@@H]1C=C(C(=O)O)C[C@H](n2cc(CN(C)c3ccc(OC)cc3)nn2)[C@H]1NC(C)=O`: the Ratio Ki in assay [2] lay in the range of 2 to 4. The same compound yielded a Ki in assay [1] of 19 µM.
On to `CCC(CC)O[C@@H]1C=C(C(=O)O)C[C@H](NCc2cn(CC(C)(CO)CO)nn2)[C@H]1NC(C)=O`, for which the Ki in assay [1] was found to be 0.89 µM.
